According to patent US20240228504A1, “SUBSTITUTED TRICYCLIC AMIDES, ANALOGUES THEREOF, AND METHODS USING SAME” (Arbutus Biopharma Corporation, priority 2020, published 2024):

test system: HBV rcDNA in HepDE19 cells; experiment: HepDE19 assay with bDNA quantitation of HBV rcDNA; type: cell-based, hepatitis B virus; conditions: Hepatitis B virus, HepDE19, HepDE19 assay, inhibition of rcDNA formation, bDNA quantitation; read-out: DE-19bDNA EC50

Structure (SMILES)	EC50 [nM]
CN(C(=O)c1ccc2c(cnn2C(F)F)c1)[C@@H]1COCc2[nH]c(=O)c3cc(F)c(F)cc3c21 [Compound 437, (S)-N-(8,9-Difluoro-6-oxo-1,4,5,6-tetrahydro-2H-pyrano[3,4-c]isoquinolin-1-yl)-1-(difluoromethyl)-N-methyl-1H-indazole-5-carboxamide]	5
CN(C(=O)c1ccc2cn[nH]c2c1)[C@@H]1COCc2[nH]c(=O)c3cc(F)c(F)cc3c21 [Compound 450, (S)-N-(8,9-Difluoro-6-oxo-1,4,5,6-tetrahydro-2H-pyrano[3,4-c]isoquinolin-1-yl)-N-methyl-1H-indazole-6-carboxamide]	110
CN(C(=O)c1ccc2nc[nH]c2c1)[C@@H]1COCc2[nH]c(=O)c3cc(F)c(F)cc3c21 [Compound 451, (S)-N-(8,9-difluoro-6-oxo-1,4,5,6-tetrahydro-2H-pyrano[3,4-c]isoquinolin-1-yl)-N-methyl-1H-benzo[d]imidazole-6-carboxamide]	12300
CN(C(=O)c1cc2sc(C#N)cc2[nH]1)[C@@H]1COCc2[nH]c(=O)c3cc(F)c(F)cc3c21 [Compound 468]	5
CN(C(=O)c1cc2sc(Cl)cc2[nH]1)[C@@H]1COC(=O)c2[nH]c(=O)c3cc(F)c(F)cc3c21 [Compound 477, (S)-2-Chloro-N-(8,9-difluoro-4,6-dioxo-1,4,5,6-tetrahydro-2H-pyrano[3,4-c]isoquinolin-1-yl)-N-methyl-4H-thieno[3,2-b]pyrrole-5-carboxamide]	20
CN(C(=O)c1cc2cc(F)c(C(F)F)cc2[nH]1)[C@@H]1COC(=O)c2[nH]c(=O)c3cc(F)c(F)cc3c21 [Compound 478, (S)-N-(8,9-Difluoro-4,6-dioxo-1,4,5,6-tetrahydro-2H-pyrano[3,4-c]isoquinolin-1-yl)-6-(difluoromethyl)-5-fluoro-N-methyl-1H-indole-2-carboxamide]	10
CN(C(=O)c1cc2cc(F)c(C(F)F)cc2[nH]1)[C@@H]1CCCc2[nH]c(=O)c3cc(F)ccc3c21 [Compound 479, (R)-6-(difluoromethyl)-5-fluoro-N-(8-fluoro-6-oxo-1,2,3,4,5,6-hexahydrophenanthridin-1-yl)-N-methyl-1H-indole-2-carboxamide]	40
CN(C(=O)c1cc2cc(F)ccc2[nH]1)[C@@H]1CCCc2[nH]c(=O)c3cc(F)c(F)cc3c21 [Compound 480, (R)-N-(8,9-difluoro-6-oxo-1,2,3,4,5,6-hexahydrophenanthridin-1-yl)-5-fluoro-N-methyl-1H-indole-2-carboxamide]	10
CN(C(=O)c1cc2cc(F)c(F)cc2[nH]1)[C@@H]1CCCc2[nH]c(=O)c3cc(F)c(F)cc3c21 [Compound 481, (R)-N-(8,9-difluoro-6-oxo-1,2,3,4,5,6-hexahydrophenanthridin-1-yl)-5,6-difluoro-N-methyl-1H-indole-2-carboxamide]	10
CN(C(=O)c1cc2cc(F)c(C(F)F)cc2[nH]1)[C@@H]1CCCc2[nH]c(=O)c3cc(F)c(F)cc3c21 [Compound 482, (R)-N-(8,9-difluoro-6-oxo-1,2,3,4,5,6-hexahydrophenanthridin-1-yl)-6-(difluoromethyl)-5-fluoro-N-methyl-1H-indole-2-carboxamide]	10
CN(C(=O)c1cc2c(C(F)F)cc(F)cc2[nH]1)[C@@H]1CCCc2[nH]c(=O)c3cc(F)c(F)cc3c21 [Compound 483, (R)-N-(8,9-difluoro-6-oxo-1,2,3,4,5,6-hexahydrophenanthridin-1-yl)-4-(difluoromethyl)-6-fluoro-N-methyl-1H-indole-2-carboxamide]	10
Cc1cccc2[nH]c(C(=O)N(C)[C@@H]3CCCc4[nH]c(=O)c5cc(F)c(F)cc5c43)cc12 [Compound 484, (R)-N-(8,9-difluoro-6-oxo-1,2,3,4,5,6-hexahydrophenanthridin-1-yl)-N,4-dimethyl-1H-indole-2-carboxamide]	10
Cc1cc(F)cc2[nH]c(C(=O)N(C)[C@@H]3CCCc4[nH]c(=O)c5cc(F)c(F)cc5c43)cc12 [Compound 485, (R)-N-(8,9-difluoro-6-oxo-1,2,3,4,5,6-hexahydrophenanthridin-1-yl)-6-fluoro-N,4-dimethyl-1H-indole-2-carboxamide]	10
CN(Cc1ccc(Br)c(F)c1)[C@@H]1COCc2[nH]c(=O)c3cc(F)c(F)cc3c21 [Compound 486, (S)-1-((4-bromo-3-fluorobenzyl)(methyl)amino)-8,9-difluoro-1,5-dihydro-2H-pyrano[3,4-c]isoquinolin-6(4H)-one]	8280
CN(C(=O)c1cc2sc(Cl)cc2[nH]1)[C@@H]1COC(O)c2[nH]c(=O)c3cc(F)c(F)cc3c21 (stereo partly drawn) [Compound 487, 2-Chloro-N-((1S)-8,9-difluoro-4-hydroxy-6-oxo-1,4,5,6-tetrahydro-2H-pyrano[3,4-c]isoquinolin-1-yl)-N-methyl-4H-thieno[3,2-b]pyrrole-5-carboxamide]	20
CN(C(=O)c1cc2cc(F)c(C(F)F)cc2[nH]1)[C@@H]1COC(O)c2[nH]c(=O)c3cc(F)c(F)cc3c21 (stereo partly drawn) [Compound 488, N-((1S)-8,9-Difluoro-4-hydroxy-6-oxo-1,4,5,6-tetrahydro-2H-pyrano[3,4-c]isoquinolin-1-yl)-6-(difluoromethyl)-5-fluoro-N-methyl-1H-indole-2-carboxamide]	10
CN(C(=O)c1cc2cc(F)ccc2[nH]1)[C@@H]1CCCc2[nH]c(=O)c3cc(F)ccc3c21 [Compound 489, (R)-5-Fluoro-N-(8-fluoro-6-oxo-1,2,3,4,5,6-hexahydrophenanthridin-1-yl)-N-methyl-11H-indole-2-carboxamide]	10
CN(C(=O)c1cc2cc(F)c(F)cc2[nH]1)[C@@H]1CCCc2[nH]c(=O)c3cc(F)ccc3c21 [Compound 490, (R)-5,6-difluoro-N-(8-fluoro-6-oxo-1,2,3,4,5,6-hexahydrophenanthridin-1-yl)-N-methyl-1H-indole-2-carboxamide]	20
Cc1cccc2[nH]c(C(=O)N(C)[C@@H]3CCCc4[nH]c(=O)c5cc(F)ccc5c43)cc12 [Compound 491, (R)-N-(8-fluoro-6-oxo-1,2,3,4,5,6-hexahydrophenanthridin-1-y1)-N,4-dimethyl-1H-indole-2-carboxamide]	20
Cc1cc(F)cc2[nH]c(C(=O)N(C)[C@@H]3CCCc4[nH]c(=O)c5cc(F)ccc5c43)cc12 [Compound 492, (R)-6-fluoro-N-(8-fluoro-6-oxo-1,2,3,4,5,6-hexahydrophenanthridin-1-y1)-N,4-dimethyl-1H-indole-2-carboxamide]	30
CN(C(=O)c1cc2c(C(F)F)cc(F)cc2[nH]1)[C@@H]1CCCc2[nH]c(=O)c3cc(F)ccc3c21 [Compound 493, (R)-4-(difluoromethyl)-6-fluoro-N-(8-fluoro-6-oxo-1,2,3,4,5,6-hexahydrophenanthridin-1-y1)-N-methyl-1H-indole-2-carboxamide]	10
CN(Cc1cc2cc(F)c(F)cc2[nH]1)[C@@H]1COCc2[nH]c(=O)c3cc(F)c(F)cc3c21 [Compound 494, (S)-1-(((5,6-difluoro-1H-indol-2-yl)methyl)(methyl)amino)-8,9-difluoro-1,5-dihydro-2H-pyrano[3,4-c]isoquinolin-6(4H)-one]	1500
CN(C(=O)c1cc2cc(F)c(F)cc2[nH]1)[C@@H]1CCC(O)c2[nH]c(=O)c3cc(F)c(F)cc3c21 (stereo partly drawn) [Compound 503, N-((1R)-8,9-difluoro-4-hydroxy-6-oxo-1,2,3,4,5,6-hexahydrophenanthridin-1-yl)-5,6-difluoro-N-methyl-1H-indole-2-carboxamide]	20
CN(C(=O)C(F)(F)c1ccccc1)[C@@H]1COCc2[nH]c(=O)c3cc(F)c(F)cc3c21 [Compound 512, (S)-N-(8,9-Difluoro-6-oxo-1,4,5,6-tetrahydro-2H-pyrano[3,4-c]isoquinolin-1-yl)-2,2-difluoro-N-methyl-2-phenylacetamide]	25000
[2H][C@@]1(N(C(=O)c2cc3cc(F)c(F)cc3[nH]2)[13C]([2H])([2H])[2H])COCc2[nH]c(=O)c3cc(F)c(F)cc3c21 [Compound 514, (S)-N-(8,9-Difluoro-6-oxo-1,4,5,6-tetrahydro-2H-pyrano[3,4-c]isoquinolin-1-yl-1-d)-5,6-difluoro-N-(methyl-^13C-d3)-1H-indole-2-carboxamide]	8
[2H][C@@]1(N(C(=O)c2cc3cc(F)c(C(F)F)cc3[nH]2)[13C]([2H])([2H])[2H])COCc2[nH]c(=O)c3cc(F)c(F)cc3c21 [Compound 515, (S)-N-(8,9-Difluoro-6-oxo-1,4,5,6-tetrahydro-2H-pyrano[3,4-c]isoquinolin-1-yl-1-d)-6-(difluoromethyl)-5-fluoro-N-(methyl-^13C-d3)-1H-indole-2-carboxamide]	10
[2H][C@@]1(N(C(=O)c2cc3sc(Cl)cc3[nH]2)[13C]([2H])([2H])[2H])COCc2[nH]c(=O)c3cc(F)c(F)cc3c21 [Compound 516, (S)-2-Chloro-N-(8,9-difluoro-6-oxo-1,4,5,6-tetrahydro-2H-pyrano[3,4-c]isoquinolin-1-yl-1-d)-N-(methyl-^13C-d3)-4H-thieno[3,2-b]pyrrole-5-carboxamide]	10
